In BigSolDB 2.1:

Settings: in acetone

CC[C@H](C)C(=O)O[C@H]1C[C@@H](C)C=C2C=C[C@H](C)[C@H](CC[C@@H]3C[C@@H](O)CC(=O)O3)[C@H]21
Settings	solubility (mole fraction)
278.65 K	0.00637
283.2 K	0.00742
288.2 K	0.00869
293.25 K	0.0104
298.75 K	0.0123
303.95 K	0.0157
308.25 K	0.0183
313.25 K	0.0226
318.15 K	0.0272
322.65 K	0.0321
